Measured values as given in patent publication US9579325B2, “Modulators of TNF-α signaling” (Genzyme Corporation, priority 2000, dated 2017).

Legend:
[1] = tested on: Vascular Cell Adhesion Molecule (VCAM) expression in primary human umbilical vein endothelial cells; test: VCAM High Throughput Screen (TNF-α driven VCAM expression); format: cell-based; conditions: HUVEC, TNF 1.0 ng/ml
Excerpt: (§1) Description of Table V: The results shown in Table V were obtained using the TNF-α assays performed as described in the protocols entitled “Method for TNF High Throughput Screen” and “Method for VCAM High Throughput Screen”, which are detailed below. These assays measure a cellular response to TNF-α stimulation, and the data published in the table are expressed as percentage inhibitions. Percentage inhibition is computed on a scale of 0 to 100% where 0 percent inhibition means the compound has no effect in the assay (the response is indistinguishable from TNF-α treatment alone), and 100% inhibition means that when the compound is present at the stated concentration, the response in the assay is the same as if TNF-α were not added. These two assays measure two different outcomes of TNF-α treatment, cell death and Vascular Cell Adhesion Molecule (VCAM) expression, and capture two of TNF-α's many biological effects. TNF-α induced apoptosis is a mechanism by which TNF-α production during immune/inflammatory responses can lead to direct cellular and tissue damage. TNF-α VCAM expression in endothelial cells is a response that allows leukocytes to leave the blood and enter a site of immune/inflammatory response. Both of these activities could lead to pathology in immune/inflammatory diseases. In the first column of the table, the percentage inhibition of the TNF-α driven apoptosis assay when the compounds are tested at 1 μM concentration is presented. The second column in the table lists the IC50 for the compound, a standard measure using a dilution series in the assay, and fitting a sigmoidal curve to the resulting dose-response curve. The IC50 is the concentration (derived analytically from the sigmoidal function) at which the compound would inhibit 50% of the response in the assay. The third and fourth column list the corresponding analysis for the TNF-α driven VCAM assay. In Table VI, data corresponding to the data in column 1 of Table V is shown, with human cells replacing the mouse cells used in the high throughput screen. […] As a consequence, the compounds will have use in treating more than one TNF-α mediated condition, and may be selected according to the manner in which the condition manifests. This corresponds to the use of these compounds in the treatment of human disease.
• 1. Plate 4×10^4 L929 cells in 100 μl of complete EMEM in Costar 96 well plates in PM. • 2. The next day, pretreat with compound, inhibitor and control vehicle for 2 hours. • 3. After 2 hours pretreatment, add 10 μl 5 ng/ml human TNF-α and actinomycin D (40 μg/ml final concentration). • 4. Incubate overnight. • 5. In AM, remove supernatant. • 6. Wash on a plate washer (0.9% NaCl). • 7. […] Shake plates on orbital shaker and read at 595 nm on plate reader. […]

male rats = test: Inflammatory Bowel Disease model: rat DNBS distal colitis; format: in vivo; conditions: 7 doses
Description: Groups of three male rats weighing 150+/−10 g and fasted for 24 hours were used. Distal colitis was induced by intracolonic instillation of 0.5 ml/rat DNBS (2,4-dinitrobenzene sulfonic acid, 60 mg/ml in ethanol 30%) after which air (2 ml) was gently injected through the cannula to ensure that the solution remains in the colon. A test compound was administered orally 24 and 2 hours before DNBS-instillation and then daily for 5 days in a total of 7 doses. The animals were sacrificed 24 hours after the final dose of test compound administration and each colon was removed and weighed.

L929 cells = test: TNF High Throughput Screen (TNF-α driven apoptosis assay); format: cell-based, mouse; conditions: Mus musculus, human TNF-α + actinomycin D; for IC50: read-out: TNFα IC50; for inhibition at 1 µM: compound at 1 μM, read-out: TNFα % Inh. @ 1 μM
Excerpt: as §1
TNF High Throughput Screen.
• 1. Plate 4×10^4 L929 cells in 100 μl of complete EMEM in Costar 96 well plates in PM. • 2. The next day, pretreat with compound, inhibitor and control vehicle for 2 hours. • 3. After 2 hours pretreatment, add 10 μl 5 ng/ml human TNF-α and actinomycin D (40 μg/ml final concentration). • 4. Incubate overnight. • 5. In AM, remove supernatant. • 6. Wash on a plate washer (0.9% NaCl). • 7. Add 100 μl Crystal Violet 0.1% in 20% ETOH. • 8. Incubate at RT for 10 minutes. • 9. Wash on plate washer. • 10. Air dry wells at 37° C. • 11. Add 100 μl of methanol to each well. • 12. Shake plates on orbital shaker and read at 595 nm on plate reader. VCAM High Throughput Screen: Protocol: • 1. Plate Primary human umbilical vein endothelial cells at 1.8×10^4 cells/well in a 96-well tissue culture plate. • 2. Return Plates to 37° C. incubator for 48-72 hours before assay. • 3. On assay day, aspirate wells and add 1804, of endothelial growth cell medium (EGM) to each well. • 4. Add Compound to each well. • 5. Shake plates for 3 minutes. • 6. Incubate plate for 1 hour at 37° C. • 7. Add Tumor Necrosis Factor (TNF) at 1.0 ng/ml final concentration. • 8. Shake plates for 3 minutes. • 9. Incubate plate for 2 hours at 37° C. • 10. Remove plate from incubator and wash plate 3 times with phosphate buffered saline (PBS) using a plate washer. • 11. Add anti-VCAM antibody at 0.5 μg/ml final concentration. • 12. Incubate at 4° C. overnight. • 13. Wash 3 times with PBS on plate washer. • 14. Add goat anti-mouse horseradish peroxidase conjugate. • 15. Incubate at room temperature for one hour. • 16. Wash 3 times with PBS on plate washer. • 17. […]

[2] = Pharmacokinetic parameters; format: in vivo; conditions: for half-life: unit and species not given, read-out: Pharmacokinetic Parameters t1/2 (converted)
C57/BL mouse = test: Sepsis model: murine LPS-d-galactosamine model; format: in vivo; conditions: prevention of mortality over three days
Description: Sepsis was induced in the C57/BL mouse by the intravenous injection of 20 ng of lipopolysaccharide/animal plus 20 mgs d-galactosamine/animal. Inhibition was measured as the prevention of mortality over a three day period. Compounds were administered intraperitoneally in 10% cremophore/10% ethanol/80% normal saline one hour before induction.

Structure (SMILES)	IC50 (L929 cells) [nM]	inhibition at 1 µM (L929 cells) [%]	other results
Cc1nn(-c2nccc(-c3ccccn3)n2)c(C)c1S(=O)(=O)Cc1ccc(Cl)cc1 [Compound 124, 2-[4-(4-Chloro-phenylmethanesulfonyl)-3,5-dimethyl-pyrazol-1-yl]-4-pyridin-2-yl-pyrimidine]	–	–	IC50 [1]: 13400 nM
O=C(c1ccccc1)c1ccccc1C(=O)N(CCc1c[nH]cn1)C(Cc1ccccc1)C(=O)NCC(c1ccccc1)c1ccccc1 (racemic) [Compound 43]	2980	–	Inflammatory Bowel Disease: Rat DNBS model % inhibition of colonic weight gain (male rats; 50 mg/kg orally): 31% @ 50 mg/kg; bioavailability ([2]; in vivo, po, species not given): < 1%; half-life ([2]; in vivo): 3.6 h; Sepsis: Murine LPS-d-galactosamine model % inhibition (C57/BL mouse; 10 mg/kg intraperitoneally one hour before induction): 33 @ 10 mg/kg %
COc1ccc(C(C(=O)NCC(c2ccccc2)c2ccccc2)N(CCc2c[nH]cn2)C(=O)c2ccccc2C(=O)c2ccccc2)cc1C (stereo not shown) [Compound 42]	779	–	IC50 [1]: 16000 nM
Cc1nn(-c2nccc(-c3ccccn3)n2)c(C)c1SCc1ccc(Cl)cc1 [Compound 119, 2-[4-(4-Chloro-benzylsulfanyl)-3,5-dimethyl-pyrazol-1-yl]-4-pyridin-2-yl-pyrimidine]	–	–	Inflammatory Bowel Disease: Rat DNBS model % inhibition of colonic weight gain (male rats; 100 mg/kg orally): 51% @ 100 mg/kg; IC50 [1]: 7950 nM; half-life ([2]; in vivo): 2.3 h; Pharmacokinetic Parameters % oral bioavailability ([2]; species not given): Undetectable; Sepsis: Murine LPS-d-galactosamine model % inhibition (C57/BL mouse; 200 mg/kg intraperitoneally one hour before induction): 33 @ 200 mg/kg %
COc1ccc(Oc2cccc(C(C(=O)NCc3cc(OC)c(OC)c(OC)c3)N(C(=O)CC(c3ccccc3)c3ccccc3)c3ccccc3C(N)=O)c2)cc1 (stereo not shown) [Compound 57]	–	56	–
N#Cc1cccc(C(C(=O)NCCC(c2ccccc2)c2ccccc2)N(CCc2c[nH]cn2)C(=O)Cc2ccc3ccccc3c2)c1 (stereo not shown) [Compound 67]	–	52	–
COc1ccc(CCNC(=O)C(c2cccc(C#N)c2)N(CCc2c[nH]cn2)C(=O)c2cnc3ccccc3n2)cc1 (stereo not shown) [Compound 74]	–	55	–
N#Cc1cccc(C(C(=O)NCCC(c2ccccc2)c2ccccc2)N(CCc2c[nH]cn2)C(=O)CCC2CCCCC2)c1 (stereo not shown) [Compound 69]	–	61	–
COc1cccc(C(=O)N(CCc2c[nH]cn2)C(C(=O)NCCC(c2ccccc2)c2ccccc2)c2cccc(C#N)c2)c1 (stereo not shown) [Compound 70]	–	58	–
O=C(NCC(c1ccccc1)c1ccccc1)C(c1ccccc1)N(CCc1c[nH]cn1)C(=O)c1cccc2c1-c1ccccc1C2 (stereo not shown) [Compound 58]	–	50	–
COc1cccc(C(=O)N(CCc2c[nH]cn2)C(C(=O)NCCC(c2ccccc2)c2ccccc2)c2cccc(C#N)c2)c1OC (stereo not shown) [Compound 66]	–	51	–
N#Cc1cccc(C(C(=O)NC(Cc2ccccc2)c2ccccc2)N(CCc2c[nH]cn2)C(=O)c2ccccc2C(=O)c2ccccc2)c1 (stereo not shown) [Compound 3]	1290	–	–
N#Cc1cccc(C(C(=O)NCC(c2ccccc2)c2ccccc2)N(CCn2ccnc2)C(=O)c2ccccc2C(=O)c2ccccc2)c1 (stereo not shown) [Compound 21]	913	–	–
